Data from PubChem BioAssay AID1963845 (Molecular Pharmacology Branch, DTP, NCI, 2024).

Test system: 429239-143-T-J1-PDC complex spheroid viability
Assay: Anticancer human tumor 429239-143-T-J1-PDC patient-derived small cell lung carcinoma cell line growth inhibition [POLQ]
Conditions: for IC50: curve of first compound; for viability, T/C: stronger effect = lower value
Outline: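 Complex spheroid viability model combining PDC tumour cells with endothelial (HUVEC) and MSC stromal cells. Novobiocin, ART-558 or RP6685 were tested singly and in combination with standard and investigational anticancer drugs. Each was titrated in half-log steps from near clinical Cmax, or from 10 microM where Cmax was unknown.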

[1] = second compound 0.0316 µM, first compound 0.0316 µM
[2] = second compound 0.0316 µM, first compound 0.1 µM
[3] = second compound 0.0316 µM, first compound 0.316 µM
[4] = second compound 0.0316 µM, first compound 1 µM
[5] = second compound 0.1 µM, first compound 0.0316 µM
[6] = second compound 0.1 µM, first compound 0.1 µM
[7] = second compound 0.1 µM, first compound 0.316 µM
[8] = second compound 0.1 µM, first compound 1 µM
[9] = second compound 0.316 µM, first compound 0.0316 µM
[10] = second compound 0.316 µM, first compound 0.1 µM
[11] = second compound 0.316 µM, first compound 0.316 µM
[12] = second compound 0.316 µM, first compound 1 µM
[13] = second compound 1 µM, first compound 0.0316 µM
[14] = second compound 1 µM, first compound 0.1 µM
[15] = second compound 1 µM, first compound 0.316 µM
[16] = second compound 1 µM, first compound 1 µM
[17] = second compound 3.16 µM, first compound 0.0316 µM
[18] = second compound 3.16 µM, first compound 0.1 µM
[19] = second compound 3.16 µM, first compound 0.316 µM
[20] = second compound 3.16 µM, first compound 1 µM
[21] = second compound 10 µM, first compound 0.0316 µM
[22] = second compound 10 µM, first compound 0.1 µM
[23] = second compound 10 µM, first compound 0.316 µM
[24] = second compound 10 µM, first compound 1 µM
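Also: luminescence signal used as surrogate measure of viable cells; spheroids exposed to compounds for seven days before readout.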
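For viability, T/C in this document: 100% = DMSO vehicle control viability as luminescence relative to vehicle.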

`CCc1cc2c(N3CCc4c(cc(Cn5ccnc5)cc4-c4cn(C)nc4C(F)(F)F)C3=O)ccnc2c(OC)n1` + Nc1ccc(C#CCN(C(=O)Cc2ncc(C(F)(F)F)cc2C(F)(F)F)c2ccc(F)cc2)nn1 was tested, and the IC50 (second compound 0.0316 µM) was 9750 nM, the IC50 (second compound 0.1 µM) was > 10000 nM and the IC50 (second compound 0.316 µM) was 7860 nM. For the same compound, the IC50 (second compound 1 µM) was 9550 nM, the IC50 (second compound 3.16 µM) was > 10000 nM and the IC50 (second compound 10 µM) was > 10000 nM. The viability, T/C [1] was 100%, the viability, T/C [2] was 94.9% and the viability, T/C [3] was 85.2%. For the same compound, the viability, T/C [4] was 80.7%, the viability, T/C (second compound 0.0316 µM, first compound 3.16 µM) was 86.4% and the viability, T/C (second compound 0.0316 µM, first compound 10 µM) was 48%. For the same compound, the viability, T/C [5] was 93.7%, the viability, T/C [6] was 96.8% and the viability, T/C [7] was 92.5%. For the same compound, the viability, T/C [8] was 74.1%, the viability, T/C (second compound 0.1 µM, first compound 3.16 µM) was 68.5% and the viability, T/C (second compound 0.1 µM, first compound 10 µM) was 49.2%. The viability, T/C [9] was 112%, the viability, T/C [10] was 113% and the viability, T/C [11] was 97.8%. It also gave a viability, T/C [12] of 83.8%, a viability, T/C (second compound 0.316 µM, first compound 3.16 µM) of 69.9% and a viability, T/C (second compound 0.316 µM, first compound 10 µM) of 44.7%. The viability, T/C [13] was 108%, the viability, T/C [14] was 94.4% and the viability, T/C [15] was 94.4%. It also gave a viability, T/C [16] of 84.6%, a viability, T/C (second compound 1 µM, first compound 3.16 µM) of 74.3% and a viability, T/C (second compound 1 µM, first compound 10 µM) of 47.6%. It also gave a viability, T/C [17] of 108%, a viability, T/C [18] of 96% and a viability, T/C [19] of 93.1%. The viability, T/C [20] was 93.6%, the viability, T/C (second compound 3.16 µM, first compound 3.16 µM) was 70.9% and the viability, T/C (second compound 3.16 µM, first compound 10 µM) was 54%. It also gave a viability, T/C [21] of 103%, a viability, T/C [22] of 93% and a viability, T/C [23] of 88.5%. It also gave a viability, T/C [24] of 79.1%, a viability, T/C (second compound 10 µM, first compound 3.16 µM) of 71% and a viability, T/C (second compound 10 µM, first compound 10 µM) of 48.2%.

With `COc1cccc(OCCCN)c1-c1cc(Nc2cnc(C#N)cn2)n[nH]1` + Nc1ccc(C#CCN(C(=O)Cc2ncc(C(F)(F)F)cc2C(F)(F)F)c2ccc(F)cc2)nn1 the IC50 (second compound 0.0316 µM) was 398 nM, the IC50 (second compound 0.1 µM) was 305 nM and the IC50 (second compound 0.316 µM) was 219 nM. For the same compound, the IC50 (second compound 1 µM) was 224 nM, the IC50 (second compound 3.16 µM) was 234 nM and the IC50 (second compound 10 µM) was 160 nM. It also gave a viability, T/C (second compound 0.0316 µM, first compound 0.00316 µM) of 91.8%, a viability, T/C (second compound 0.0316 µM, first compound 0.01 µM) of 94.8% and a viability, T/C [1] of 87.6%. It also gave a viability, T/C [2] of 72.7%, a viability, T/C [3] of 55.2% and a viability, T/C [4] of 33.3%. It also gave a viability, T/C (second compound 0.1 µM, first compound 0.00316 µM) of 95.1%, a viability, T/C (second compound 0.1 µM, first compound 0.01 µM) of 97.2% and a viability, T/C [5] of 83.1%. It also gave a viability, T/C [6] of 71.3%, a viability, T/C [7] of 49.4% and a viability, T/C [8] of 28.7%. For the same compound, the viability, T/C (second compound 0.316 µM, first compound 0.00316 µM) was 103%, the viability, T/C (second compound 0.316 µM, first compound 0.01 µM) was 98.9% and the viability, T/C [9] was 98.7%. It also gave a viability, T/C [10] of 65.3%, a viability, T/C [11] of 45.4% and a viability, T/C [12] of 33.6%. The viability, T/C (second compound 1 µM, first compound 0.00316 µM) was 102%, the viability, T/C (second compound 1 µM, first compound 0.01 µM) was 90.2% and the viability, T/C [13] was 83.8%. It also gave a viability, T/C [14] of 68.8%, a viability, T/C [15] of 40.3% and a viability, T/C [16] of 27.1%. For the same compound, the viability, T/C (second compound 3.16 µM, first compound 0.00316 µM) was 105%, the viability, T/C (second compound 3.16 µM, first compound 0.01 µM) was 89.1% and the viability, T/C [17] was 90.6%. It also gave a viability, T/C [18] of 74.5%, a viability, T/C [19] of 40.3% and a viability, T/C [20] of 24.5%. The viability, T/C (second compound 10 µM, first compound 0.00316 µM) was 102%, the viability, T/C (second compound 10 µM, first compound 0.01 µM) was 86.5% and the viability, T/C [21] was 75.7%. The viability, T/C [22] was 60%, the viability, T/C [23] was 36.2% and the viability, T/C [24] was 26.1%.
